Key:
[1] = target: T1, GABA-A receptor; alpha-5/beta-3/gamma-2 (Homo sapiens) (UniProt P18507+P28472+P31644); experiment: Negative allosteric modulation activity at human recombinant alpha5beta3gamma2 GABAA receptor stably expressed in HEK293 cells assessed as modulation at alpha5 subunit at 10 uM by Patch clamp method; format: cell-based
[2] = Metabolic stability in Wistar rat liver microsomes assessed as intrinsic clearance at 2.5 uM; format: ADME, Microsome; conditions: read-out: CLH
[3] = Ratio of drug level in brain to plasma in Wistar rat at 3 mg/kg, po measured at 1.5 hr post dose; format: ADME, organism-based; conditions: brain and plasma, read-out: BPR
[4] = target: GABA-A receptor; alpha-1/beta-3/gamma-2 (Homo sapiens) (UniProt P14867+P18507+P28472); experiment: Negative allosteric modulation activity at human recombinant alpha1beta3gamma2 GABAA receptor stably expressed in HEK293 cells assessed as modulation at alpha1 subunit at 10 uM by Patch clamp method; format: cell-based; conditions: filed as negative allosteric modulator
[5] = Metabolic stability in human liver microsomes assessed as intrinsic clearance at 2.5 uM; format: ADME, Microsome; conditions: read-out: CLH
[6] = target: T2, GABA-A receptor; alpha-5/beta-3/gamma-2 (Homo sapiens, UniProt P18507+P28472+P31644); experiment: Displacement of [3H]Ro151788 from human recombinant alpha5beta3gamma2 GABAA receptor stably expressed in HEK293 cell membrane assessed as inhibition constant by radioligand binding assay; format: cell membranes
T2 sequence (P18507 whole entry): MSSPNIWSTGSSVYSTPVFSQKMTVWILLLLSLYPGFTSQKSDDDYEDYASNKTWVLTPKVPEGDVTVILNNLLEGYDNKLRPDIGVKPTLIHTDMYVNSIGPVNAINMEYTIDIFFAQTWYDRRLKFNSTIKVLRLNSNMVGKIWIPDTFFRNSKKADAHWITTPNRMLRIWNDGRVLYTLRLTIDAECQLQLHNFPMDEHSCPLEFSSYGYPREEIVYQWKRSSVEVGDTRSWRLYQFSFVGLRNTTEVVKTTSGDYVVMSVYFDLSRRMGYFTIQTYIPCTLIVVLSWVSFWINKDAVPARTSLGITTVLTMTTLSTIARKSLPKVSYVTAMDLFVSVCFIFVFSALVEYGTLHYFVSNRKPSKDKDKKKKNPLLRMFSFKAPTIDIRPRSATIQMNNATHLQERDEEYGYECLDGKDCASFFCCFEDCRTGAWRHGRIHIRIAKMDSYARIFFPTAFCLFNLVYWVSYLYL
T2 sequence (P28472 whole entry): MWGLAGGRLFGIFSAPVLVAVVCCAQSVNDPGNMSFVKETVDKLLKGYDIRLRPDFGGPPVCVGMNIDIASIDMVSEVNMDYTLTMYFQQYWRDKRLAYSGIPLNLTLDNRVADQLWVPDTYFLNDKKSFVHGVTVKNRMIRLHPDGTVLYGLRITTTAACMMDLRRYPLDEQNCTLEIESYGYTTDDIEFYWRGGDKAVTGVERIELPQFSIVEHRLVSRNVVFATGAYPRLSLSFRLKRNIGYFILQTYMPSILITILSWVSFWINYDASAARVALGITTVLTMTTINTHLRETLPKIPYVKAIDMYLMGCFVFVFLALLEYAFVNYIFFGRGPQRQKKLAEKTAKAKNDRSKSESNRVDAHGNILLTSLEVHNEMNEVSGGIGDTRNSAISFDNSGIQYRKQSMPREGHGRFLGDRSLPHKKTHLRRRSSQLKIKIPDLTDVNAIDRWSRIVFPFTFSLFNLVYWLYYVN
T2 sequence (P31644 whole entry): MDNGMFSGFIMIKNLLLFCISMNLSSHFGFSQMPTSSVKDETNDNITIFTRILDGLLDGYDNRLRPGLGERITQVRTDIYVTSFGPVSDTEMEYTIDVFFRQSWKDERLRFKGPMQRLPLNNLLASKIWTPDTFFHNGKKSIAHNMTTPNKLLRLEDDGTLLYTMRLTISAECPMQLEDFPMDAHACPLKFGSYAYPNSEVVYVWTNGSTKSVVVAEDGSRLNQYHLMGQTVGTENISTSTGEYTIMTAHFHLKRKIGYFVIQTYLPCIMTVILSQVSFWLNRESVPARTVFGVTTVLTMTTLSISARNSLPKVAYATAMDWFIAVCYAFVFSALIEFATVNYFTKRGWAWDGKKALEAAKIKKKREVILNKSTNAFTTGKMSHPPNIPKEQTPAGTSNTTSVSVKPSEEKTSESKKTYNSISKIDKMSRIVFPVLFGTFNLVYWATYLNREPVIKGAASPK

[7] = Apparent permeability in human Caco-2 cells at 10 uM by HPLC-UV analysis; format: ADME, cell-based
[8] = target: T1, GABA-A receptor; alpha-5/beta-3/gamma-2 (Homo sapiens); experiment: Negative allosteric modulation activity at human recombinant alpha5beta3gamma2 GABAA receptor stably expressed in HEK293 cells assessed as modulation at alpha5 subunit at 1 uM by Patch clamp method; format: cell-based; conditions: filed as negative allosteric modulator
[9] = Passive permeability in human Caco-2 cells assessed as permeability damage ratio at 10 uM by HPLC-UV analysis; format: ADME, cell-based; conditions: caco-2, 10 µM
[10] = target: Voltage-gated inwardly rectifying potassium channel KCNH2 (Homo sapiens, UniProt Q12809); experiment: Inhibition of hERG expressed in CHO cells stably at -80 mV holding potential by automated patch clamp method; format: toxicity, cell-based
Voltage-gated inwardly rectifying potassium channel KCNH2, sequence (Q12809 whole entry): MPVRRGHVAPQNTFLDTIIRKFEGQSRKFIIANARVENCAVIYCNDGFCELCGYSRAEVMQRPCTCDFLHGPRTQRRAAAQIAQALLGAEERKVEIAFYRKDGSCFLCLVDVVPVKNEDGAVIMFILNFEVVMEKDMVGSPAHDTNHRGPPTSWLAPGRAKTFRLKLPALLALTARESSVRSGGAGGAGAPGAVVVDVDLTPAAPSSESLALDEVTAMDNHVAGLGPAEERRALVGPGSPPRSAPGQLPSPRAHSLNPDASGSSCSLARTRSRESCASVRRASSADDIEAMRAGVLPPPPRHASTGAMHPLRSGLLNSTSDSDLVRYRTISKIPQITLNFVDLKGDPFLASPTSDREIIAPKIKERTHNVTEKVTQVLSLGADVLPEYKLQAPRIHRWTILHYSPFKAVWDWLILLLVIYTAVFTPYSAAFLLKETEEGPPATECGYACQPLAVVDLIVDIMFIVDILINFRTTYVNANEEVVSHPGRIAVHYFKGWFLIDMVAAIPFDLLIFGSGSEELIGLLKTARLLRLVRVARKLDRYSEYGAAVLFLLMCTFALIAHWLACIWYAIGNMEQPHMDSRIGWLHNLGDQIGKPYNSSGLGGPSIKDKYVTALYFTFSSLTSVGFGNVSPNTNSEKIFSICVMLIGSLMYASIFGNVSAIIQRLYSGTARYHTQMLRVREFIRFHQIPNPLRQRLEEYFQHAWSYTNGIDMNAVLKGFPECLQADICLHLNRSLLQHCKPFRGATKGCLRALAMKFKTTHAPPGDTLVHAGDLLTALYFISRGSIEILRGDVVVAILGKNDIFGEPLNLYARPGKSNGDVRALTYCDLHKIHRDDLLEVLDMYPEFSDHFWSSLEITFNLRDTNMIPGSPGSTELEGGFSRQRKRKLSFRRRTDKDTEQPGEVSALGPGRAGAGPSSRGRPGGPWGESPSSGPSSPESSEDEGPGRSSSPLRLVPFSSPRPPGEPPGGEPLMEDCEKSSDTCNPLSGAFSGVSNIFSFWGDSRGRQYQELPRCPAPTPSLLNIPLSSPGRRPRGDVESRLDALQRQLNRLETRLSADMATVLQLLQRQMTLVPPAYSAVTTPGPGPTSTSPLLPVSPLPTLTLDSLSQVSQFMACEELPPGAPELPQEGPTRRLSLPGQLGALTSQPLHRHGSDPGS

[11] = AUC (0 to infinity) in Wistar rat total plasma at 1 mg/kg, po by HPLC-MS/MS analysis; format: ADME, organism-based; design: time infinity, dose 1 mg/kg, route po
[12] = Half life in Wistar rat total plasma at 1 mg/kg, po by HPLC-MS/MS analysis; format: ADME, organism-based
[13] = Tmax in Wistar rat total plasma at 1 mg/kg, po by HPLC-MS/MS analysis; format: ADME, organism-based
[14] = Half life in Wistar rat total plasma at 1 mg/kg, iv by HPLC-MS/MS analysis; format: ADME, organism-based
[15] = Bioavailability in Wistar rat total plasma at 1 mg/kg, iv by HPLC-MS/MS analysis; format: ADME, organism-based
[16] = AUC (0 to infinity) in Wistar rat total plasma at 1 mg/kg, iv by HPLC-MS/MS analysis; format: ADME, organism-based; design: time infinity, dose 1 mg/kg, route iv
[17] = Cmax in Wistar rat total plasma at 1 mg/kg, po by HPLC-MS/MS analysis; format: ADME, organism-based; design: dose 1 mg/kg, route po
[18] = Clearance in Wistar rat plasma at 1 mg/kg, iv by HPLC-MS/MS analysis; format: ADME, organism-based
[19] = Volume of distribution in Wistar rat plasma at 1 mg/kg, iv by HPLC-MS/MS analysis; format: ADME, organism-based
[20] = Ratio of drug level in brain to plasma in Wistar rat at 1 mg/kg, iv by HPLC-MS/MS analysis; format: ADME, organism-based; conditions: brain and plasma, read-out: BPR
[21] = filed as negative allosteric modulator

Structure (SMILES) | Activity [1, 21] | microsomal CLint at 2.5 µM [2] | Kp at 1.5 h [3] | Activity [4] | microsomal CLint at 2.5 µM [5] | Ki [6] | Papp at 10 µM [7] | Activity [8] | Ratio [9] | IC50 [10] | other results
Cc1nnn(-c2ccc(F)cc2)c1COc1ccc2c(n1)CCN(C(=O)C1CCOC1)C2 (stereo not drawn) | -39% | 29 µL/min/mg | 0.21 | -7% | 13 µL/min/mg | 42 nM | 44.6 ×10⁻⁶ cm/s | -34% | 1.1 | 30000 nM | 
Cc1nnn(-c2ccc(F)cc2)c1COc1ccc2c(n1)CCN(CCS(C)(=O)=O)C2=O |  | 9 µL/min/mg | 0.02 | -16% | 1 µL/min/mg | 55 nM | 22 ×10⁻⁶ cm/s | -41% | 3.2 | 30000 nM | Activity [1]: -51%
CC(=O)N1CCc2nc(OCc3c(C)nnn3-c3ccc(F)cc3)ccc2C1 | -36% | 26 µL/min/mg | 0.45 | 0% | 18 µL/min/mg | 28 nM | 52.8 ×10⁻⁶ cm/s | -25% | 0.74 | > 30000 nM | AUC(0-inf) [11]: 20.4 ng·h/mL; half-life [12]: 42.6 min; Tmax [13]: 30 min; half-life [14]: 12 min; bioavailability [15]: 9.4%; AUC(0-inf) [16]: 218 ng·h/mL; Cmax [17]: 21.4 ng/mL; clearance [18]: 77.9 mL/min/kg; Vd [19]: 1.36 L/kg; Kp [20]: 0.46
CC(=O)N1Cc2ccc(OCc3c(C)nnn3-c3ccc(F)cc3)nc2C1 | -30% | 25 µL/min/mg | 0.38 | -7% | 9 µL/min/mg | 3.2 nM | 54.5 ×10⁻⁶ cm/s | -19% | 0.9 | 30000 nM | AUC(0-inf) [11]: 43.7 ng·h/mL; half-life [12]: 51.6 min; Tmax [13]: 30 min; half-life [14]: 13.8 min; bioavailability [15]: 14.5%; AUC(0-inf) [16]: 301 ng·h/mL; Cmax [17]: 47.6 ng/mL; clearance [18]: 55.5 mL/min/kg; Vd [19]: 1.09 L/kg; Kp [20]: 0.38
Cc1nnn(-c2ccc(F)cc2)c1COc1ccc2c(n1)CCN(C(=O)NC1CC(=O)N(C)C1)C2 (stereo not drawn) | -35% | 11 µL/min/mg |  | -3% | 4 µL/min/mg | 38 nM | 0.33 ×10⁻⁶ cm/s | -31% | 134 | > 30000 nM | 
Cc1onc(-c2ccc(F)cc2)c1COc1ccc2c(n1)CCN(CCS(C)(=O)=O)C2=O | -46% | 89 µL/min/mg |  | -12% | 7 µL/min/mg | 7.7 nM | 49.3 ×10⁻⁶ cm/s | -33% | 1.1 | 1100 nM | 
Cc1nnn(-c2ccc(F)cc2)c1COc1ccc2c(n1)CCN(C(=O)C1CCCO1)C2 (stereo not drawn) | -43% | 46 µL/min/mg | 0.31 | -8% | 15 µL/min/mg | 39 nM | 47.1 ×10⁻⁶ cm/s | -30% | 0.92 | > 30000 nM | 
